Test results taken from patent US12624026B2, “Inhibitors of SARM1” (Disarm Therapeutics, Inc., priority 2018, dated 2026).
Like-named read-outs stand apart in the source and are kept apart here.

Target: T1, SARM1 SAM-TIR (Homo sapiens, UniProt Q6SZW1)
T1 construct: a fragment of the SARM1 molecule encompassing the SAM and TIR domains; made in house; host or cells: NRK1-HEK293T cells, transiently transfected; the cleared, unpurified lysate was used as the enzyme
T1 sequence (Q6SZW1 409-724 limits assumed): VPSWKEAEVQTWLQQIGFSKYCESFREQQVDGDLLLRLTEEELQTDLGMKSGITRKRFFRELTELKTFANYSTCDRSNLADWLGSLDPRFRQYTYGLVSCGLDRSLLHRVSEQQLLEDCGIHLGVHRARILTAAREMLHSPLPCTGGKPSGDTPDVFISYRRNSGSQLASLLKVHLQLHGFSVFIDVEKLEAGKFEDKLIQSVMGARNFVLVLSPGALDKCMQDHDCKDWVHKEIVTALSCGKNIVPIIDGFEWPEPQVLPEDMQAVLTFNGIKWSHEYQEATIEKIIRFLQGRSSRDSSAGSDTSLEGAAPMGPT
Test: biochemical

[1] = SAM-TIR lysate 5 μg/mL, 2 h pre-incubation, 5 μM NAD+, RapidFire MS of NAD+ and ADPR, read-out: SARM1 IC50
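Note: inhibition of SARM1 SAM-TIR NADase activity, i.e. NAD+ cleavage, using lysate of NRK1-HEK293T cells overexpressing the SAM-TIR fragment.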

| IC50 [1] | IC50 | Structure (SMILES) |
| --- | --- | --- |
| > 5000 nM | – | N#Cc1c(N2CCc3ccccc32)s[nH]c1=O [Example 162] |
| < 1000 nM | – | N#Cc1c(Nc2ccccc2C(F)(F)F)sn(CCCCCNC(=O)CCCC[C@@H]2SC[C@@H]3NC(=O)N[C@@H]32)c1=O [Example 175] |
| < 1000 nM | – | Cn1sc(Nc2cccc(Cl)c2Cl)c(C#N)c1=O [Example 37] |
| < 1000 nM | – | N#Cc1c(Nc2cccc(Br)c2C(F)(F)F)s[nH]c1=O [Example 49] |
| < 1000 nM | – | CS(=O)(=O)c1ccccc1Nc1snc(O)c1C#N [Example 25] |
| 1000 to 5000 nM | – | O=c1cc(Nc2ccccc2C(F)(F)F)s[nH]1 [Example 166] |
| < 1000 nM | – | CCCn1sc(Nc2ccccc2C(F)(F)F)c(C#N)c1=O [Example 87] |
| 1000 to 5000 nM | – | N#Cc1c(Nc2ccc(N3CC[C@@H](N)C3)nc2)s[nH]c1=O [Example 144] |
| 1000 to 5000 nM | – | N#Cc1c(O)nsc1Nc1ccc(Cl)c(Cl)c1 [Example 8] |
| 1000 to 5000 nM | – | N#Cc1c(Nc2c(Cl)ccc3ncccc23)s[nH]c1=O [Example 104] |
| < 1000 nM | – | N#Cc1c(Nc2ccccc2C(F)(F)F)sn(CCc2ccccc2)c1=O [Example 83] |
| 1000 to 5000 nM | – | N#Cc1c(Nc2ccc3c(c2)ncn3[C@H]2CCNC2)s[nH]c1=O [Example 151] |
| < 1000 nM | – | Cc1ccc2ncccc2c1Nc1sn(C)c(=O)c1C#N [Example 81] |
| < 1000 nM | – | N#Cc1c(Nc2ccccc2C(F)(F)F)sn(C[C@H]2CCOC2)c1=O [Example 63] |
| > 5000 nM | – | N#Cc1c(Nc2cccc(-c3ccc4cc[nH]c4c3)c2C(F)(F)F)s[nH]c1=O [Example 161] |
| < 1000 nM | – | N#Cc1c(Nc2ccccc2C(F)(F)F)sn(CCC(N)=O)c1=O [Example 36] |
| < 1000 nM | – | N#Cc1c(Nc2ccccc2C(F)(F)F)sn(CCO)c1=O [Example 39] |
| 1000 to 5000 nM | – | N#Cc1c(O)nsc1Nc1ccc(C(F)(F)F)cc1 [Example 13] |
| 1000 to 5000 nM | – | N#Cc1c(O)nsc1Nc1ccc(Cl)cc1 [Example 5] |
| > 5000 nM | – | COC(=O)c1c(Nc2ccccc2C(F)(F)F)s[nH]c1=O [Example 123] |
| < 1000 nM | – | N#Cc1c(Nc2ccccc2C(F)(F)F)sn(CC(N)=O)c1=O [Example 38] |
| < 1000 nM | – | N#Cc1c(Nc2c(Cl)cccc2Cl)sn(CCO)c1=O [Example 68] |
| 1000 to 5000 nM | – | N=C(c1c(Nc2cccc(Cl)c2Cl)s[nH]c1=O)N1CCOCC1 [Example 136] |

| IC50 [1] | IC50 | Structure (SMILES) |
| --- | --- | --- |
| < 1000 nM | – | Cn1ccc(Cn2sc(Nc3ccccc3C(F)(F)F)c(C#N)c2=O)n1 [Example 56] |
| < 1000 nM | – | Cn1sc(Nc2c(F)cccc2Cl)c(C#N)c1=O [Example 45] |
| < 1000 nM | – | COCCn1sc(Nc2c(OC)cccc2C(F)(F)F)c(C#N)c1=O [Example 57] |
| 1000 to 5000 nM | – | N#Cc1c(O)nsc1Nc1ccc2cccnc2c1 [Example 29] |
| < 1000 nM | – | N#Cc1c(Nc2ccccc2C(F)(F)F)sn(C[C@@H]2CCOC2)c1=O [Example 60] |
| > 5000 nM | – | COc1cccc(C(F)(F)F)c1Nc1s[nH]c(=O)c1C(=O)N1CCOCC1 [Example 159] |
| 1000 to 5000 nM | – | NC(=O)c1c(O)nsc1Nc1ccccc1OC(F)(F)F [Example 21] |
| < 1000 nM | – | N#Cc1c(Nc2cccc3ncccc23)sn(CCC(N)=O)c1=O [Example 122] |
| > 5000 nM | – | COCCN(C)C(=O)c1c(Nc2c(Cl)cccc2Cl)s[nH]c1=O [Example 119] |
| < 1000 nM | – | CC(C)(O)Cn1sc(Nc2c(F)cccc2Cl)c(C#N)c1=O [Example 67] |
| > 5000 nM | – | COCCn1sc(Nc2c(Cl)cccc2Cl)c(C(N)=O)c1=O [Example 118] |
| < 1000 nM | – | Cc1ccc2c(Nc3sn(C)c(=O)c3C#N)c(Cl)ccc2n1 [Example 42] |
| < 1000 nM | – | Cn1sc(Nc2c(Cl)ccc3c2CCCO3)c(C#N)c1=O [Example 66] |
| 1000 to 5000 nM | – | Cc1cc(C)n2c1CC1C=CC(CCC(=O)NCCCCCn3sc(Nc4ccccc4C(F)(F)F)c(C#N)c3=O)=[N+]1[B-]2(F)F (stereo not shown) [Example 176] |
| 1000 to 5000 nM | – | N#Cc1c(Nc2ccccc2C2CC2)s[nH]c1=O [Example 111] |
| < 1000 nM | – | COCCn1sc(Nc2ccccc2C(F)(F)F)c(C#N)c1=O [Example 51] |
| < 1000 nM | – | N#Cc1c(Nc2ccccc2C(F)(F)F)sn(Cc2ccccn2)c1=O [Example 62] |
| < 1000 nM | – | C[C@H](c1ccccc1)n1sc(Nc2ccccc2C(F)(F)F)c(C#N)c1=O [Example 89] |
| > 5000 nM | – | COCCN(C)C(=O)c1c(Nc2ccccc2C(F)(F)F)sn([C@@H](C)c2ccccc2)c1=O [Example 114] |
| < 1000 nM | – | COCC(C)n1sc(Nc2ccccc2C(F)(F)F)c(C#N)c1=O (stereo not shown) [Example 74] |
| < 1000 nM | – | COCCn1sc(Nc2c(Cl)cccc2Cl)c(C#N)c1=O [Example 73] |
| 1000 to 5000 nM | – | CN(C)C(=O)c1c(Nc2ccccc2C(F)(F)F)s[nH]c1=O [Example 115] |
| < 1000 nM | – | N#Cc1c(Nc2ccccc2C(F)(F)F)sn(Cc2n[nH]c3ccccc23)c1=O [Example 92] |

| IC50 [1] | IC50 | Structure (SMILES) |
| --- | --- | --- |
| < 1000 nM | – | N#Cc1c(O)nsc1Nc1cc(Cl)ccc1Cl [Example 19] |
| < 1000 nM | – | N#Cc1c(Nc2ccccc2C(F)(F)F)sn(CC2(O)CC2)c1=O [Example 61] |
| < 1000 nM | – | COCCn1sc(Nc2c(Cl)cccc2C(F)(F)F)c(C#N)c1=O [Example 90] |
| < 1000 nM | – | Cc1ccc2c(Nc3sn(C)c(=O)c3C#N)cccc2n1 [Example 91] |
| < 1000 nM | – | N#Cc1c(Nc2cccc(Cl)c2Cl)sn(CCO)c1=O [Example 34] |
| < 1000 nM | – | Cn1sc(Nc2ccc(Cl)c3c2CCCO3)c(C#N)c1=O [Example 85] |
| < 1000 nM | – | CN(C)CCn1sc(Nc2ccccc2C(F)(F)F)c(C#N)c1=O [Example 33] |
| < 1000 nM | – | C[C@H](CO)n1sc(Nc2ccccc2C(F)(F)F)c(C#N)c1=O [Example 47] |
| < 1000 nM | – | Cn1sc(Nc2c(Cl)ccc3c2CCO3)c(C#N)c1=O [Example 40] |
| < 1000 nM | – | N#Cc1c(O)nsc1Nc1c(Cl)cccc1Cl [Example 16] |
| < 1000 nM | – | N#Cc1c(Nc2ccccc2C(F)(F)F)sn(CCOCCOCCNC(=O)CCCC[C@@H]2SC[C@@H]3NC(=O)N[C@@H]32)c1=O [Example 178] |
| < 1000 nM | – | CSc1ccccc1Nc1snc(O)c1C#N [Example 23] |
| 1000 to 5000 nM | – | O=C(c1c(Nc2ccccc2C(F)(F)F)s[nH]c1=O)N1CCOCC1 [Example 148] |
| < 1000 nM | – | N#Cc1c(Nc2ccccc2C(F)(F)F)sn(CC2CCCO2)c1=O (stereo not shown) [Example 76] |
| < 1000 nM | – | COCCCn1sc(Nc2ccccc2C(F)(F)F)c(C#N)c1=O [Example 71] |
| 1000 to 5000 nM | – | N#Cc1c(Nc2ccc(N3CC[C@@H](O)C3)nc2)s[nH]c1=O [Example 150] |
| > 5000 nM | – | N#Cc1c(Nc2cccc(C(=O)O)c2C(F)(F)F)s[nH]c1=O [Example 120] |
| < 1000 nM | – | COc1cccc(C)c1Nc1sn(C)c(=O)c1C#N [Example 93] |
| 1000 to 5000 nM | – | NC(=O)c1c(O)nsc1Nc1cccc(Cl)c1Cl [Example 18] |
| < 1000 nM | – | N#Cc1c(Nc2ccccc2C(F)(F)F)sn(Cc2ccccc2)c1=O [Example 80] |
| < 1000 nM | – | N#Cc1c(Nc2c(F)cccc2Cl)s[nH]c1=O [Example 102] |
| > 5000 nM | – | N#Cc1c(Nc2cccc(C3CCNCC3)c2C(F)(F)F)s[nH]c1=O [Example 163] |
| < 1000 nM | – | Cn1sc(Nc2c(Br)ccc3ncccc23)c(C#N)c1=O [Example 50] |

| IC50 [1] | IC50 | Structure (SMILES) |
| --- | --- | --- |
| < 1000 nM | – | COCCn1sc(Nc2cccc3ncccc23)c(C#N)c1=O [Example 95] |
| < 1000 nM | – | Cn1sc(Nc2ccc(Cl)c3c2CCO3)c(C#N)c1=O [Example 41] |
| < 1000 nM | – | COCCn1sc(Nc2cccc(Cl)c2Cl)c(C#N)c1=O [Example 58] |
| – | 1000 to 5000 nM | O=C(c1c(Nc2ccccc2C(F)(F)F)s[nH]c1=O)N1CCCC1 [Example 110] |
| < 1000 nM | – | COCCn1sc(Nc2ccc(Cl)cc2C(F)(F)F)c(C#N)c1=O [Example 70] |
| < 1000 nM | – | CC(C)(O)Cn1sc(Nc2c(Cl)cccc2Cl)c(C#N)c1=O [Example 101] |
| 1000 to 5000 nM | – | C[C@@H](c1ccccc1)n1sc(Nc2ccccc2C(F)(F)F)c(C(=O)N2CCOCC2)c1=O [Example 147] |
| 1000 to 5000 nM | – | C[C@@H](c1ccccc1)n1sc(Nc2ccccc2C(F)(F)F)c(C(=N)N2CCOCC2)c1=O [Example 137] |
| < 1000 nM | – | Cn1sc(Nc2ccccc2Cl)c(C(=N)N2CCOCC2)c1=O [Example 126] |
| < 1000 nM | – | CN(C)C(=N)c1c(Nc2cccc(Cl)c2Cl)s[nH]c1=O [Example 133] |
| < 1000 nM | – | COc1ccc2ncccc2c1Nc1sn(C)c(=O)c1C#N [Example 84] |
| < 1000 nM | – | C#CCOCCOCCn1sc(Nc2ccccc2C(F)(F)F)c(C#N)c1=O [Example 179] |
| < 1000 nM | – | Cn1sc(Nc2c(Cl)ccc3c2CCN3)c(C#N)c1=O [Example 72] |
| > 5000 nM | – | N#Cc1c(NC2CCCCC2)s[nH]c1=O [Example 170] |
| < 1000 nM | – | CC(C)n1sc(Nc2ccccc2C(F)(F)F)c(C#N)c1=O [Example 107] |
| < 1000 nM | – | COCCn1sc(Nc2ccccc2C(C)(C)C)c(C#N)c1=O [Example 98] |
| < 1000 nM | – | Cn1sc(Nc2ccccc2Cl)c(C#N)c1=O [Example 32] |
| 1000 to 5000 nM | – | O=C(c1c(Nc2c(Cl)cccc2Cl)s[nH]c1=O)N1CCOCC1 [Example 153] |
| < 1000 nM | – | CC(O)Cn1sc(Nc2ccccc2C(F)(F)F)c(C#N)c1=O (stereo not shown) [Example 43] |
| < 1000 nM | – | Cn1sc(Nc2cccc3c2CCCO3)c(C#N)c1=O [Example 75] |
| 1000 to 5000 nM | – | CN(C(=O)c1c(Nc2ccccc2C(F)(F)F)s[nH]c1=O)c1ccccc1 [Example 172] |
| < 1000 nM | – | CS(=O)(=O)CCn1sc(Nc2ccccc2C(F)(F)F)c(C#N)c1=O [Example 55] |
